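Values below derive from 48-hour exposures of cells grown in 96-well plates, with endpoints linearly interpolated between the two concentrations bracketing the appropriate inhibition level. The concentration for full growth arrest is given as TGI.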
Columns and labels:
Assay in all cases: NCI-60 cell line screen, 48 h
[1] = test system: IGROV1 ovarian
[2] = test system: PC-3 prostate
[3] = test system: NCI-H23 lung
[4] = test system: A498 renal
[5] = test system: NCI-H522 lung
[6] = test system: SK-OV-3 ovarian
[7] = test system: HCT-116 colon
[8] = test system: SN12C renal
[9] = test system: BT-549 breast
[10] = test system: DU-145 prostate
[11] = test system: NCI-H460 lung
[12] = test system: 786-0 renal
[13] = test system: OVCAR-3 ovarian
[14] = test system: SF-539 CNS
[15] = test system: MDA-MB-231 breast
[16] = test system: HL-60(TB) leukemia
[17] = test system: MDA-MB-435
[18] = test system: MCF7 breast
[19] = test system: EKVX NSCLC
[20] = test system: HS 578T breast
[21] = test system: A549 NSCLC
[22] = test system: CCRF-CEM leukemia
[23] = test system: SW-620 colon
[24] = test system: SK-MEL-28 melanoma
[25] = test system: NCI-H226 lung
[26] = test system: TK-10 renal
[27] = test system: UACC-257 melanoma
[28] = test system: SF-295 CNS
[29] = test system: NCI/ADR-RES ovarian
[30] = test system: UACC-62 melanoma
[31] = test system: UO-31 renal
[32] = test system: HCC-2998 colon
[33] = test system: MDA-N
[34] = test system: HCT-15 colon
[35] = test system: LOX IMVI melanoma
[36] = test system: SK-MEL-2 melanoma
[37] = test system: HT29 colon
[38] = test system: SNB-75 CNS
[39] = test system: RXF 393 renal
[40] = test system: OVCAR-4 ovarian
[41] = test system: COLO 205 colon
[42] = test system: K-562 leukemia
[43] = test system: HOP-62 NSCLC
[44] = test system: HOP-92 NSCLC
[45] = test system: SF-268 CNS
[46] = test system: SK-MEL-5 melanoma
[47] = test system: M14 melanoma
[48] = test system: OVCAR-5 ovarian
[49] = test system: OVCAR-8 ovarian
[50] = test system: SNB-19 CNS
[51] = test system: U251 CNS
[52] = test system: ACHN renal
[53] = test system: MALME-3M melanoma
[54] = test system: SR leukemia
[55] = test system: CAKI-1 renal
[56] = test system: RPMI-8226 leukemia
[57] = test system: MOLT-4 leukemia
[58] = test system: KM12 colon
[59] = test system: T-47D breast

## Cc1ccc(S(=O)(=O)NC(Cc2ccccc2)C(=O)CCl)cc1 (centres undefined)
[1]
  TGI: 28.8 µM
[2]
  TGI: 29.5 µM
[3]
  TGI: 26.8 µM
[4]
  TGI: 31.7 µM
[5]
  TGI: 21.4 µM
[6]
  TGI: 47 µM
[7]
  TGI: 23.8 µM
[8]
  TGI: 25.3 µM
[9]
  TGI: 23.9 µM
[10]
  TGI: 31.6 µM
[11]
  TGI: 29.3 µM
[12]
  TGI: 27.8 µM
[13]
  TGI: 29.2 µM
[14]
  TGI: 30.4 µM
[15]
  TGI: 27.3 µM
[16]
  TGI: > 100 µM
[17]
  TGI: 30.3 µM
[18]
  TGI: 24.5 µM
[19]
  TGI: 34.4 µM
[20]
  TGI: 11.3 µM
[21]
  TGI: 31.5 µM
[22]
  TGI: > 100 µM
[23]
  TGI: 24.1 µM
[24]
  TGI: 32.9 µM
[25]
  TGI: 33.1 µM
[26]
  TGI: 30.9 µM
[27]
  TGI: 24.9 µM
[28]
  TGI: 36.6 µM
[29]
  TGI: 62.9 µM
[30]
  TGI: 26.4 µM
[31]
  TGI: 27 µM
[32]
  TGI: 26.9 µM
[33]
  TGI: 27.8 µM
[34]
  TGI: 31.6 µM
[35]
  TGI: 20.1 µM
[36]
  TGI: 26 µM
[37]
  TGI: 28.5 µM
[38]
  TGI: 28 µM
[39]
  TGI: 6.33 µM
[40]
  TGI: 18.9 µM
[41]
  TGI: 32.3 µM
[42]
  TGI: > 100 µM
[43]
  TGI: 31 µM
[44]
  TGI: 26.8 µM
[45]
  TGI: 31.4 µM
[46]
  TGI: 25 µM
[47]
  TGI: 26.2 µM
[48]
  TGI: 31.2 µM
[49]
  TGI: 29.7 µM
[50]
  TGI: 32.1 µM
[51]
  TGI: 29.7 µM
[52]
  TGI: 30.1 µM
[53]
  TGI: 27.8 µM

## O=C1/C(=C/c2ccc([N+](=O)[O-])cc2)CCCc2ccccc21
[1]
  TGI: > 100 µM
[2]
  TGI: > 100 µM
[3]
  TGI: > 100 µM
[54]
  TGI: > 100 µM
[5]
  TGI: > 100 µM
[6]
  TGI: > 100 µM
[7]
  TGI: > 100 µM
[8]
  TGI: > 100 µM
[9]
  TGI: > 100 µM
[10]
  TGI: > 100 µM
[11]
  TGI: > 100 µM
[12]
  TGI: > 100 µM
[13]
  TGI: > 100 µM
[14]
  TGI: > 100 µM
[15]
  TGI: > 100 µM
[16]
  TGI: > 100 µM
[17]
  TGI: > 100 µM
[55]
  TGI: > 100 µM
[18]
  TGI: > 100 µM
[19]
  TGI: > 100 µM
[20]
  TGI: 75.9 µM
[21]
  TGI: > 100 µM
[22]
  TGI: > 100 µM
[23]
  TGI: > 100 µM
[24]
  TGI: > 100 µM
[25]
  TGI: > 100 µM
[26]
  TGI: > 100 µM
[27]
  TGI: > 100 µM
[28]
  TGI: > 100 µM
[29]
  TGI: > 100 µM
[56]
  TGI: > 100 µM
[30]
  TGI: > 100 µM
[31]
  TGI: > 100 µM
[32]
  TGI: > 100 µM
[33]
  TGI: > 100 µM
[34]
  TGI: > 100 µM
[35]
  TGI: > 100 µM
[36]
  TGI: > 100 µM
[37]
  TGI: > 100 µM
[38]
  TGI: > 100 µM
[40]
  TGI: > 100 µM
[41]
  TGI: > 100 µM
[42]
  TGI: > 100 µM
[57]
  TGI: > 100 µM
[43]
  TGI: > 100 µM
[58]
  TGI: > 100 µM
[44]
  TGI: > 100 µM
[45]
  TGI: > 100 µM
[47]
  TGI: > 100 µM
[48]
  TGI: > 100 µM
[49]
  TGI: > 100 µM
[50]
  TGI: > 100 µM
[51]
  TGI: > 100 µM
[52]
  TGI: > 100 µM
[53]
  TGI: > 100 µM

## CC[C@@]1(O)C(=O)OCc2c1cc1n(c2=O)Cc2c-1nc1ccccc1c2/C=N\NC(=O)C(N)Cc1ccc(O)cc1 (some centres undefined)
[3]
  TGI: 1.82 µM
[4]
  TGI: 3.65 µM
[54]
  TGI: 0.396 µM
[5]
  TGI: 5.21 µM
[6]
  TGI: 9.77 µM
[7]
  TGI: 4.44 µM
[8]
  TGI: 7.75 µM
[9]
  TGI: > 31.6 µM
[11]
  TGI: 10.8 µM
[12]
  TGI: 6.55 µM
[14]
  TGI: 0.217 µM
[15]
  TGI: > 31.6 µM
[16]
  TGI: 4.69 µM
[59]
  TGI: > 25.7 µM
[22]
  TGI: 1.15 µM
[25]
  TGI: 2.64 µM
[26]
  TGI: > 31.6 µM
[27]
  TGI: 18.9 µM
[28]
  TGI: 3.16 µM
[56]
  TGI: 5.62 µM
[30]
  TGI: 1.71 µM
[31]
  TGI: 8.76 µM
[33]
  TGI: > 31.6 µM
[34]
  TGI: > 31.6 µM
[35]
  TGI: 2.77 µM
[39]
  TGI: 4.38 µM
[40]
  TGI: > 31.6 µM
[41]
  TGI: > 31.6 µM
[42]
  TGI: > 100 µM
[57]
  TGI: 1.59 µM
[44]
  TGI: 5.64 µM
[46]
  TGI: 2.7 µM
[50]
  TGI: > 31.6 µM
[51]
  TGI: 5.04 µM
[52]
  TGI: 2.75 µM
[53]
  TGI: 7.8 µM

## C/C1=C\[C@@H](C)C[C@@H](C)OC(=O)[C@@H](C)NC(=O)[C@H](Cc2ccc(O)c(Br)c2)N(C)C(=O)CNC(=O)[C@H](C)C1
[1]
  TGI: 0.033 µM
[2]
  TGI: 5.04 µM
[4]
  TGI: < 0.021 µM
[6]
  TGI: 5.26 µM
[7]
  TGI: > 55.2 µM
[8]
  TGI: > 100 µM
[9]
  TGI: 2.16 µM
[10]
  TGI: > 100 µM
[11]
  TGI: > 69.1 µM
[12]
  TGI: 5.84 µM
[13]
  TGI: 0.0243 µM
[14]
  TGI: 0.677 µM
[15]
  TGI: 5.34 µM
[16]
  TGI: < 0.01 µM
[17]
  TGI: > 44.3 µM
[18]
  TGI: > 100 µM
[20]
  TGI: 0.69 µM
[21]
  TGI: > 100 µM
[22]
  TGI: < 0.01 µM
[23]
  TGI: > 100 µM
[24]
  TGI: 17.3 µM
[26]
  TGI: 0.26 µM
[27]
  TGI: 27.2 µM
[28]
  TGI: 5.55 µM
[29]
  TGI: > 57 µM
[56]
  TGI: 56.1 µM
[30]
  TGI: > 55.1 µM
[31]
  TGI: 0.127 µM
[32]
  TGI: 70.1 µM
[33]
  TGI: > 100 µM
[34]
  TGI: 44.2 µM
[35]
  TGI: < 0.01 µM
[36]
  TGI: 25.6 µM
[37]
  TGI: > 100 µM
[38]
  TGI: < 0.01 µM
[39]
  TGI: < 0.0429 µM
[41]
  TGI: > 100 µM
[42]
  TGI: > 100 µM
[57]
  TGI: > 64.1 µM
[58]
  TGI: > 100 µM
[44]
  TGI: 0.0993 µM
[45]
  TGI: 1.89 µM
[46]
  TGI: > 52.8 µM
[47]
  TGI: > 100 µM
[48]
  TGI: > 100 µM
[49]
  TGI: > 40.4 µM
[50]
  TGI: > 100 µM
[51]
  TGI: 5.34 µM
[52]
  TGI: 0.249 µM
[53]
  TGI: 9.83 µM

Source: PubChem BioAssay (NCI)
